Target: T1, HEK cells stably transfected with tetracycline inducible hNR1 and hNR2A (Homo sapiens, UniProt Q05586+Q12879)
T1 construct: expressed in transfected cells; host or cells: HEK cells, stably transfected, tetracycline/doxycycline inducible
Test: Assay 1: Cell-Based Assay, cytosolic calcium response to positive allosteric modulators (with 30 μM glycine and 300 nM L-glutamate, EC30)
Conditions: Table 2; for Max %: responses scaled relative to 100 μM L-glutamate maximal response (100%) and 0 μM L-glutamate (0%); for EC50: cytosolic calcium response, with 30 μM glycine and 300 nM L-glutamate (EC30), — = no plateau was reached
Outline: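 Cells induced 24 h with 7.5 μg mL^−1 doxycycline plus 500 μM (+)-ketamine, loaded 60 min at 37 °C with calcium dye in Mg-free HBSS (1.8 mM Ca, probenecid, 10 μM (+)-ketamine, pH 7.15). Peak RFU over 5 min after compound addition, scaled to 100 μM L-glutamate (100%) and 0 μM (0%); four-parameter Hill fit for EC50, max % if no plateau.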

T1 sequence (Q12879 23-1464, other chains not shown): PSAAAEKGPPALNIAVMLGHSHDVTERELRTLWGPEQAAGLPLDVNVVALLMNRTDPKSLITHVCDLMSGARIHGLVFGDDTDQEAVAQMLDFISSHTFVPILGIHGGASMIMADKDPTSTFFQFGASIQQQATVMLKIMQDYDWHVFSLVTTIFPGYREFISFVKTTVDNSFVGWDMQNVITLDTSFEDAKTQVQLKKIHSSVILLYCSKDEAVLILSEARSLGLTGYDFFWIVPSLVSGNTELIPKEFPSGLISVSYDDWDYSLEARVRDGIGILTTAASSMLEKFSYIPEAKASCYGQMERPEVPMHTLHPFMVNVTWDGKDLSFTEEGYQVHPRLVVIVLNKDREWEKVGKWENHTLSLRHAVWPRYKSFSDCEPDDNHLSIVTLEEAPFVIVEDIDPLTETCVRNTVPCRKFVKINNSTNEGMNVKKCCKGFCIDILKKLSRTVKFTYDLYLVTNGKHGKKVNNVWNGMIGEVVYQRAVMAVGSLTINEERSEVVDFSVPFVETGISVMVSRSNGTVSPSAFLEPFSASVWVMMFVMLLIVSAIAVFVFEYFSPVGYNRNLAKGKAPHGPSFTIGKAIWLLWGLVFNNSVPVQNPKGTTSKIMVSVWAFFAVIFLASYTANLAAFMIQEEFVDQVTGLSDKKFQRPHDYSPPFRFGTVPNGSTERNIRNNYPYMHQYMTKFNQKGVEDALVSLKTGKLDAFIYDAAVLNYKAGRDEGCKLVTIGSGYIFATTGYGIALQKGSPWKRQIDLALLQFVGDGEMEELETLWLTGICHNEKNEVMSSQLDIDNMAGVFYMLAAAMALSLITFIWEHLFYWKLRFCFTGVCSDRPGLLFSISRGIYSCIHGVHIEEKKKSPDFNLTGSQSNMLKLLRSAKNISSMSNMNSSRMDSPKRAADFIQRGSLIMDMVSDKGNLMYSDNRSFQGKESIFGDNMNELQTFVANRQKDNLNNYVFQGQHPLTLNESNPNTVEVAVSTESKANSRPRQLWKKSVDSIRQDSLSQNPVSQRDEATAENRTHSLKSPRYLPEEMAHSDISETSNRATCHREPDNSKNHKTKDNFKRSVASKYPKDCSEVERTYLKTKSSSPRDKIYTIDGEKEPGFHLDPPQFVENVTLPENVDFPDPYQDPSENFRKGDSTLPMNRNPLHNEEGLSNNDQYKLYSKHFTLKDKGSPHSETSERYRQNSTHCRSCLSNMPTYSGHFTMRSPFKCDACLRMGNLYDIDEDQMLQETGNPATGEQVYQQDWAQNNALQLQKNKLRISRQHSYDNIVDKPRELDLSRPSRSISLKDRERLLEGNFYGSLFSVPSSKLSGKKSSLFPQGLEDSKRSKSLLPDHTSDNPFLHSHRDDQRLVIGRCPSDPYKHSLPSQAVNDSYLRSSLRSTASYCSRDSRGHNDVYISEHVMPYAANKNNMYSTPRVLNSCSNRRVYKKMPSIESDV

Max %	EC50	SMILES
145.1%	0.56 µM	CCN(Cc1cc(=O)n2c(-c3cncnc3)c(C)sc2n1)c1ccc(F)cc1 [Example 5.1, 7-[(N-ethyl-4-fluoro-anilino)methyl]-2-methyl-3-pyrimidin-5-yl-thiazolo[3,2-a]pyrimidin-5-one]
148%	5.7 µM	Cc1sc2nc(CN(C)c3ccc(F)cc3)cc(=O)n2c1-c1cncnc1 [Example 5.2, 7-(((4-fluorophenyl)(methyl)amino)methyl)-2-methyl-3-(pyrimidin-5-yl)-5H-thiazolo[3,2-a]pyrimidin-5-one]
177%	2.2 µM	Cc1sc2nc(CN(CC(F)(F)F)c3ccc(F)cc3)cc(=O)n2c1-c1cncnc1 [Example 5.3, 7-(((4-fluorophenyl)(2,2,2-trifluoroethyl)amino)methyl)-2-methyl-3-(pyrimidin-5-yl)-5H-thiazolo [3,2-a]pyrimidin-5-one]
172%	0.956 µM	CCN(Cc1cc(=O)n2c(-c3cncnc3)c(C)sc2n1)c1ccc(F)c(F)c1 [Example 5.4, 7-(((3,4-difluorophenyl)(ethyl)amino)methyl)-2-methyl-3-(pyrimidin-5-yl)-5H-thiazolo[3,2-a]pyrimidin-5-one]
168%	2.4 µM	CCN(Cc1cc(=O)n2c(-c3cncnc3)c(C)sc2n1)c1cccc(F)c1 [Example 5.5, 7-((ethyl(3-fluorophenyl)amino)methyl)-2-methyl-3-(pyrimidin-5-yl)-5H-thiazolo[3,2-a]pyrimidin-5-one]
164%	0.766 µM	Cc1sc2nc(CN(CC(F)F)c3ccc(F)cc3)cc(=O)n2c1-c1cncnc1 [Example 5.6, 7-(((2,2-difluoroethyl)(4-fluorophenyl)amino)methyl)-2-methyl-3-(pyrimidin-5-yl)-5H-thiazolo[3,2-a] pyrimidin-5-one]
156%	0.669 µM	CCN(Cc1cc(=O)n2c(-c3nccs3)c(C)sc2n1)c1ccc(F)cc1 [Example 5.8, 7-((ethyl(4-fluorophenyl)amino)methyl)-2-methyl-3-(thiazol-2-yl)-5H-thiazolo[3,2-a]pyrimidin-5-one]
143%	1.3 µM	CCN(Cc1cc(=O)n2c(-c3cccs3)c(C)sc2n1)c1ccc(F)cc1 [Example 5.9, 7-((ethyl(4-fluorophenyl)amino)methyl)-2-methyl-3-(thiophen-2-yl)-5H-thiazolo[3,2-a]pyrimidin-5-one]
133%	18 µM	CCN(Cc1cc(=O)n2c(-c3cncnc3)c(C)sc2n1)c1cccc(C#N)c1 [Example 5.10, 3-(ethyl((2-methyl-5-oxo-3-(pyrimidin-5-yl)-5H-thiazolo [3,2-a]pyrimidin-7-yl)methyl)amino)benzonitrile]
118%	2.9 µM	CCN(Cc1cc(=O)n2c(-c3cccnc3N)c(C)sc2n1)c1ccc(F)cc1 [Example 5.11, 3-(2-aminopyridin-3-yl)-7-((ethyl(4-fluorophenyl)amino)methyl)-2-methyl-5H-thiazolo[3,2-a]pyrimidin-5-one]
106%		CCN(Cc1cc(=O)n2c(-c3cncnc3)c(C)sc2n1)c1ccccn1 [Example 5.12, 7-((ethyl(pyridine-2-yl)amino)methyl)-2-methyl-3-(pyrimidin-5-yl)-5H-thiazolo[3,2-a]pyrimidin-5-one]

Second part, the compound before the results:

SMILES	Max %	EC50
C/C(=N\O)c1c(C)sc2nc(COc3ccc(F)cc3)cc(=O)n12 [Example 2.8, 7-(4-Fluorophenoxymethyl)-3-[1-(hydroxyimino)ethyl]-2-methyl-5H-[1,3]thiazolo[3,2-a]pyrimidin-5-one]	137%	
Cc1sc2nc(COc3ccc(F)cc3)cc(=O)n2c1C(=O)C1COC1 [Example 2.9, 7-((4-fluorophenoxy)methyl)-2-methyl-3-(oxetane-3-carbonyl)-5H-thiazolo[3,2-a]pyrimidin-5-one]	56.4%	
Cc1sc2nc(COc3ccc(F)cc3)cc(=O)n2c1C(O)C(F)(F)F (centres unmarked) [Example 2.10, 7-((4-fluorophenoxy)methyl)-2-methyl-3-(2,2,2-trifluoro-1-hydroxyethyl)-5H-thiazolo[3,2-a]pyrimidin-5-one]	119%	
Cc1sc2nc(COc3ccc(F)cc3)cc(=O)n2c1C(=O)C(F)(F)F [Example 2.11, 7-(4-Fluorophenoxymethyl)-2-methyl-3-(trifluoroacetyl)-5H-[1,3]thiazolo[3,2-a]pyrimidin-5-one]	87.4%	
CCNC(=O)c1c(C2CC2)sc2nc(COc3ccc(F)cc3)cc(=O)n12 [Example 3.1, 2-cyclopropyl-N-ethyl-7-((4-fluorophenoxy)methyl)-5-oxo-5H-thiazolo[3,2-a]pyrimidine-3-carboxamide]	56.2%	41 µM
CNC(=O)c1c(C(F)(F)F)sc2nc(COc3ccc(F)cc3)cc(=O)n12 [Example 3.2, 7-(4-Fluorophenoxymethyl)-N-methyl-5-oxo-2-(trifluoromethyl)-5H-[1,3]thiazolo[3,2-a]pyrimidine-3-carboxamide]	42.7%	10.1 µM
CNC(=O)c1c(C2CC2)sc2nc(COc3ccc(F)cc3)cc(=O)n12 [Example 3.3, 2-Cyclopropyl-7-(4-fluorophenoxymethyl)-N-methyl-5-oxo-5H-[1,3]thiazolo[3,2-a]pyrimidine-3-carboxamide]	61.8%	
CCNC(=O)c1c(C(F)(F)F)sc2nc(COc3ccc(F)cc3)cc(=O)n12 [Example 3.4, N-Ethyl-7-(4-fluorophenoxymethyl)-5-oxo-2-(trifluoromethyl)-5H-[1,3]thiazolo[3,2-a]pyrimidine-3-carboxamide]	44.6%	
CNC(=O)c1csc2nc(COc3ccc(F)cc3)cc(=O)n12 [Example 3.5, 7-((4-fluorophenoxy)methyl)-N-methyl-5-oxo-5H-thiazolo[3,2-a]pyrimidine-3-carboxamide]	65.6%	
CCNC(=O)c1c(C)sc2nc(COc3ccc(F)cn3)cc(=O)n12 [Example 3.6, N-ethyl-7-[[(5-fluoropyridin-2-yl)oxy]methyl]-2-methyl-5-oxo-5H-[1,3]thiazolo[3,2-a]pyrimidine-3-carboxamide]	68%	
Cc1sc2nc(COc3ccc(F)cc3)cc(=O)n2c1-c1cncnc1 [Example 4.5, 7-((4-fluorophenoxy)methyl)-2-methyl-3-(pyrimidin-5-yl)-5H-thiazolo[3,2-a]pyrimidin-5-one]	42.2%	5.7 µM
Cc1sc2nc(COc3ccc(F)cc3)cc(=O)n2c1-c1ncco1 [Example 4.11, 7-((4-fluorophenoxy)methyl)-2-methyl-3-(oxazol-2-yl)-5H-thiazolo[3,2-a]pyrimidin-5-one]	40.8%	4.8 µM
Cc1sc2nc(COc3ccc(F)cc3)cc(=O)n2c1-c1ccn[nH]1 [Example 4.15, 7-((4-fluorophenoxy)methyl)-2-methyl-3-(1H-pyrazol-5-yl)-5H-thiazolo[3,2-a]pyrimidin-5-one]	50%	13.9 µM
Cc1sc2nc(COc3ccc(F)cc3)cc(=O)n2c1-c1nnc[nH]1 [Example 4.16, 7-((4-fluorophenoxy)methyl)-2-methyl-3-(4H-1,2,4-triazol-3-yl)-5H-thiazolo[3,2-a]pyrimidin-5-one]	46.2%	
Cc1sc2nc(COc3ccc(F)cc3)cc(=O)n2c1C1CC1 [Example 4.17, 3-cyclopropyl-7-[(4-fluorophenoxy)methyl]-2-methyl-thiazolo[3,2-a]pyrimidin-5-one]	40.3%	
Cc1sc2nc(COc3ccc(F)cc3)cc(=O)n2c1C1CC1C (centres unmarked) [Example 4.25, 7-(4-Fluorophenoxymethyl)-2-methyl-3-(2-methylcyclopropyl)-5H-[1,3]thiazolo[3,2-a]pyrimidin-5-one]	109%	2.8 µM
COCC1CC1c1c(C)sc2nc(COc3ccc(F)cc3)cc(=O)n12 (centres unmarked) [Example 4.27, 7-(4-Fluorophenoxymethyl)-3-[2-(methoxymethyl)cyclopropyl]-2-methyl-5H-[1,3]thiazolo[3,2-a]pyrimidin-5-one]	103%	
Cc1sc2nc(COc3ccc(F)cc3)cc(=O)n2c1C1CC1CF (centres unmarked) [Example 4.28, 3-(2-(fluoromethyl)cyclopropyl)-7-((4-fluorophenoxy)methyl)-2-methyl-5H-thiazolo[3,2-a]pyrimidin-5-one]	89%	3.4 µM
Cc1sc2nc(COc3ccc(F)cc3)cc(=O)n2c1CCCO [Example 4.30, 7-(4-Fluorophenoxymethyl)-3-(3-hydroxypropyl)-2-methyl-5H-[1,3]thiazolo[3,2-a]pyrimidin-5-one]	75.4%	15.5 µM
COCc1c(C)sc2nc(COc3ccc(F)cc3)cc(=O)n12 [Example 4.31, 7-(4-Fluorophenoxymethyl)-3-(methoxymethyl)-2-methyl-5H-[1,3]thiazolo[3,2-a]pyrimidin-5-one]	43.3%	
Cc1sc2nc(COc3ccc(F)cc3)cc(=O)n2c1C1(O)COC1 [Example 4.32, 7-((4-fluorophenoxy)methyl)-3-(3-hydroxyoxetan-3-yl)-2-methyl-5H-thiazolo[3,2-a]pyrimidin-5-one]	50.2%	
Cc1sc2nc(COc3ccc(F)cc3)cc(=O)n2c1C(C)CCO (centres unmarked) [Example 4.33, 7-(4-Fluorophenoxymethyl)-3-(4-hydroxybutan-2-yl)-2-methyl-5H-[1,3]thiazolo[3,2-a]pyrimidin-5-one]	121%	13.8 µM
Cc1sc2nc(COc3ccc(F)cc3)cc(=O)n2c1C1CC1C(C)(C)O (centres unmarked) [Example 4.34, 7-(4-Fluorophenoxymethyl)-3-[2-(2-hydroxypropan-2-yl)cyclopropyl]-2-methyl-5H-[1.3]thiazolo[3,2-a]pyrimidin-5-one]	49.2%	

Reference: patent publication US9988400B2 (Genentech, Inc., priority 2013, dated 2018)
